This is an account of results in patent publication EP0091090A2, “Bipyridine substituted imidazolidene copper complex and its use in food-producing animals, and bipyridine, 2,2'-(2-imidazolidinylidene) di-copper complex and use in animals” (INTERNATIONAL MINERALS & CHEMICAL CORPORATION, priority 1982, dated 1983).

The test system of one assay is rumen microflora. The assay can be described thus: Batch culture assay for the degradation of starch (Example 3). In kind it is cell-based, steers. From the text:
The subject Formula ^IV compound was also compared to monensin in another rumen fluid batch culture test as set forth below. The test was designed to screen compounds for inhibition of starch breakdown by the rumen microflora. […] It is considered more desirable to avoid degradation of starch in the rumen so that it is passed on into the abomasum where it can be digested more efficiently. […] Test Procedure: Animals - Mature fistulated steers were maintained on concentrate, roughage, or concentrate/ roughage (50/50) rations. Animals were fed twice daily at 8:00 A.M. and 4:00 P.M.
Culture Assays - Approximately two liters of rumen fluid were collected from fistulated animals with the use of a hand pump. The rumen fluid, collected in a stoppered flask, was then immediately taken to the laboratory for processing. Samples were taken at 8:00 A.M. just prior to the first feeding or at 1:00 P.M. (ca. 4-5 hours after the first feeding). Rumen fluid was strained through six layers of cotton gauze cloth into a flask that was flushed with C02 gas. The filtrate was centrifuged for 5 minutes at 100 rpm in a Sorvall centrifuge to remove large particulate material. The supernatant was again passed through six layers of gauze into a flask under C02 gas and stoppered.
Batch Culture Assay for the Degradation of Starch - Twenty-five ml of rumen fluid prepared as above was added to serum vials (Wheaton Glass, 100 ml capacity) containing 0.25-1.00% final concentration starch as an energy substrate in 25 ml batch culture assay buffer. The serum vials were sealed under C02 gas phase, and incubations were carried out for 20-24 hours at 39°C on a New Brunswick rotary shaker (250 rpm). Each experimental vial was done in triplicate. The corn starch used in degradation experiments was previously washed with distilled water several times, filtered through an 8 micron (47 mm) Millipore filter, and dried at 90°C for 24 hours.
At intervals of 0 and 24 hours, the entire contents in vials were centrifuged at 250 rpm for 5 minutes. The supernatants were carefully removed with a pipet and the remaining "starch pellets" resuspended in water and passed through borosilicate glass microfiber prefilters (Millipore AP 20-047-00). Filters were dried in an oven for 24 hours at 90°C, cooled and then weighed. The amount of starch remaining after 24 hours' incubation was compared with the amount present at 0 hours and the per cent of substrate degraded calculated.

Assay [1] can be described thus: Methane production in growing lambs, respiration calorimetry (Example 4). It is filed as in vivo. The conditions noted are these: 75 ppm in diet, 3 days treated feed, versus negative control. From the text:
Animal Test: The object of this test is to determine the effect of the test compound on methane production in growing animals (ruminants). A decrease in methane production is an indication of increased utilization of the animals' feed supply, and possibly an indication of the effectiveness of the compound as a growth promoter.
Test Procedure: The test animals are housed in special respiration calorimetry facilities during the tests so that all metabolic gases can be collected and measured.
Twelve wether lambs, weighing between 20 and 25 kg, were selected from a group of lambs purchased from the California Livestock Marketing Association. The animals were processed according to standard procedures after arrival, and they were ear tagged for identification purposes and weighed prior to being moved to the respiration calorimetry facility.
Experimental Design - The animals were fed 500 grams of a 30% concentrate diet (Table 4) twice daily.
The Formula IV compound was tested in three animals at a level of 75 ppm. The test period was one week. […] Methane production was monitored during this time. […]
Sample Collection and Analysis - Since only the gas data on methane was of interest, urine and feces were collected daily and discarded. […] These samples were analyzed by gas chromatography to get a qualitative measure of […] production. […]

With “2,2'-(4,5-diphenyl-2H-imidazol-2-ylidene)bispyridine with CuCl2(1/1) [Formula IV Compound]”, the starch degraded in the assay on rumen microflora (50 ppm, relative to unincubated control rumen fluid batch culture) is given as 28.7%. Besides, the “per cent starch degraded” value in the assay with rumen microflora (75 ppm, relative to unincubated control) is 13.9%. Moreover, in assay [1], the methane production result is given as “significant decrease”.
